Experimental data published in patent US9598362B2, “Benzidine derivative, method for preparing same, and pharmaceutical composition containing benzidine derivative for treating liver disease caused by hepatitis C virus” (priority 2013, dated 2017).
Like-named read-outs stand apart in the source and are kept apart here.

Legend:
[1] = test system: HCV replicon NK/R2AN; experiment: Evaluation of anti-HCV activity 2: inhibition of HCV replication, huh7.5.1 cells with replicon NK/R2AN, renilla luciferase; format: cell-based; conditions: for EC50: Hepatitis C virus
Procedure: To evaluate the anti-HCV activity, that is the activity to inhibit HCV replication, of the compound represented by formula 1 of the present invention, the following experiment was performed.
The hepatoma cell line huh7.5.1 having NK/R2AN, the replicon with which the replication and translation of HCV could be measured, was distributed in a 12-well cell culture plate at the density of 50,000 cells/well. The cells were cultured in DMEM (Dulbecco's Modified Eagle's Medium 12800-017, GIBCO Co.) supplemented with 10% (v/v) FBS (Fetal Bovine Serum SH30406.02, Hyclone Co.), 1% (v/v) antibiotics (penicillin/streptomycin solution SV30010, Hyclone Co.), and G418 (600 μg/mL, Calbiochem) in a 37° C. 6.0% CO2 incubator (CO2 Incubator 311, Forma Scientific Co, Lnc. USA) for 24 hours to lead cell attachment on the plate. Then, the cells were inoculated with HCV having renilla luciferase gene as a reporter for 3 hours. Upon completion of the virus inoculation, the cell culture medium was replaced with the medium containing the compounds prepared in Examples 1˜24 were added to the culture medium at the concentrations of 40 pM˜1 μM each. The cells were cultured in a 37° C. 6.0% CO2 incubator (CO2 Incubator 311, Forma Scientific Co, Lnc. USA) for 3 days. Three days after the infection, the cell culture medium was collected to measure the cytotoxicity in the following Experimental Example 3. The cells attached on the plate were washed with PBS (phosphate buffered saline) and then lysed by treating 100 μl of 1× passive lysis buffer (Promega, E1941). The cell lysate (10 μl) was added to renilla luciferase assay reagent (50 μl) in renilla luciferase assay system (Promega, E2820), followed by measurement of luminescence for 10 seconds using the luciferase measure program with Luminometer (GLOMAX 20/20 Luminometer, Promega). At this time, the measurement of luminescence was performed in triplicate with the groups treated with the compounds of Examples 1˜24 and the non-treated control group. The mean value was calculated and compared. The luminescence of each compound over the concentration was converted into EC50 (half maximal effective concentration) by using sigma plot program, and the results are shown in Table 3. At this time, when EC50 was under 100 pM, it was marked as A; when EC50 was in the range of 100 pM 1 nM, it was marked as B; when EC50 was in the range of 1 nM˜100 nM, it was marked as C; and when EC50 was over 100 nM, it was marked as D. The results are shown in Table 3.

[2] = Evaluation of physiological activity: pharmacokinetics after oral or intravenous administration; format: in vivo; conditions: male mouse, 5 mg/kg; for AUC(0-inf): read-out: AUC0-∞, value up to infinite time from the administration; for half-life: read-out: T1/2 (time) (converted)
Procedure: The following experiment was performed to evaluate physiological activity of the compound prepared in Example 16 by observing the pharmacokinetic changes.
Particularly, the compound of Example 16 was orally or intravenously administered to male mouse, followed by observation of the pharmacokinetic changes. For the oral administration, the compound of Example 16 was dissolved to make the concentration 2.5 mg/ml. The prepared compound solution was orally administered at the dose of 5 mg/kg, followed by drawing blood from the jugular vein of the mouse at regular intervals. For the intravenous administration, tubes were inserted in the jugular vein and the femoral vein of male mouse. The compound solution was intravenously injected through the femoral vein at the dose of 5 mg/kg, followed by drawing blood from the mouse at regular intervals. The drawed blood was centrifuged to separate plasma. The plasma and urine samples were pretreated with a proper organic solvent, followed by investigation by LC-MS/MS. At this time, LC-MS/MS was performed by using mass spectrometry (Agilent 6460 QQQ, Agilent), LC lamp (Agilent 1260, Agilent), autosampler (Agilent 1260, Agilent), and data analysis system (Peak Sample Data System, Analyst 1.4.2, Applied Biosystems), and the conditions for LC-MS/MS were as follows; sample injection amount: 10 μl, flow rate: 0.3 ml/min, column: […] C18 column (50 mm×2.0 mm, 12 nm, YMC), elution buffer: acetonitrile: 10 mM ammoniumformate buffer=90:10 (v/v), and MS/MS condition: MPM mode: HCV (m/z 761.8170.1), IS (imipramine, m/z 281.286.2). The blood concentration over the administration period of the compound treated via oral or intravenous administration was analyzed, from which the noncompartmental pharmacokinetic parameter was calculated by using WinNonlin (Pharsight, USA).

[3] = Evaluation of plasma stability; format: in vitro ADME, mouse; conditions: plasma:phosphate buffer pH 7.4 1:1, 37° C., LC-MS/MS, relative to time 0
Procedure: Particularly, the compound of Example 16 was dissolved in dimethylsulfoxide at the concentration of 5 μM, resulting in the preparation of the sample solution. The plasma solution (495 μl) was prepared by mixing phosphate buffer (pH 7.4) and plasma at the ratio of 1:1, which was loaded in each well of a 96-well plate. The sample solution prepared above was added to each well (5 μl) of the plate. Then, the plate was covered with a lid, followed by shaking-culture at 100 rpm at 37° C. for 0.5, 1, and 4 hours in the orbital shaker. The reaction was terminated by adding 0-5° C. acetonitrile. At this time, in the case when the process time was 0 after the sample treatment, the reaction was terminated with acetonitrile at the same time as the sample solution was loaded in the plate containing the plasma solution. Upon completion of the reaction, the plate was kept frozen. Then, the plate was centrifuged at 3000 rpm for 10 minutes. Upon completion of the centrifugation, the supernatant (100 μl) was loaded in each well of a 96-well plate, followed by LC-MS/MS. The result obtained by measuring the plasma survival rate at the process time 0 was considered as the standard, based on which each time-dependent plasma survival rate was calculated by considering the concentration over the time of each sample. The results are presented in Tale 6.

## COC(=O)N[C@@H](C(=O)N1CCC[C@H]1C(=O)Nc1ccc(-c2ccc(NC(=O)[C@@H]3CCCN3C(=O)[C@H](NC(=O)OC)c3ccccc3)cc2)cc1)c1ccccc1 [Example 16, dimethyl(1S,1′S)-2,2′-((2S,2′S)-2,2′-(biphenyl-4,4′-diylbis(azandiyl))bis(oxomethylene)bis(pyrrolidine-2,1-diyl))bis(2-oxo-1-phenylethane-2,1-diyl)dicarbamate]
[1]; Huh-7.5.1
  EC50: < 0.1 nM
[1]; Huh-7.5.1, 72 h, read-out: EC50 grade
  EC50: < 0.1 nM
[1]; duplicated HCV treated with compound
  EC50 (in words): significantly low
[2]; intravenous injection
  AUC0-t: 9160 ± 1030 ng·h/mL
  AUC0-∞: 9370 ± 1060 ng·h/mL
[2]; oral administration
  AUC0-t: 1830 ± 565 ng·h/mL
  AUC0-∞: 2500 ± 498 ng·h/mL
  Tmax (time): 2 ± 1.73 time
[2]; oral administration, plasma
  Cmax: 188 ng/mL
[2]; plasma, iv, intravenously injected, read-out: AUC0-24, value up to 24 hours from the administration
  AUC0-t: 9160 ng·h/mL
[2]; plasma, iv, intravenously injected
  AUC(0-inf): 9370 ng·h/mL
[2]; plasma, po relative to iv, printed in the Intravenous Injection column, read-out: Ft, bioavailability
  bioavailability: 20%
[2]; plasma, po, orally administered, read-out: AUC0-24, value up to 24 hours from the administration
  AUC0-t: 1830 ng·h/mL
[2]; plasma, po, orally administered
  AUC(0-inf): 2500 ng·h/mL
[2]; plasma, intravenous injection
  clearance: 8.97 mL/min/kg
  half-life: 4.09 ± 3.06 h
[2]; plasma, intravenous injection, read-out: Vss
  Vd: 1.31 ± 0.144 L/kg
[2]; plasma, oral administration
  half-life: 15 ± 9.5 h
[2]; plasma, oral administration, read-out: time to reach the maximum concentration (Tmax)
  Tmax: 2 h
[3]
  Survival rate after 0.5 h: >99%
  Survival rate after 1 h: >99%
